One compound from patent publication US8975293B2, “Epigenetic co-repressors of the gamma-globin gene and methods of using same” (Regents of the University of Michigan, priority 2011, dated 2015) can be followed below.

SMILES strings stand for the structures.

Data set [1] has as its system H3K4 demethylase activity of LSD1. To be noted: differentiating erythroid cells, normalized to untreated cells. The method, then:
(§1) Cryopreserved vials of purified human CD34+ cells, which were isolated from peripheral blood of healthy donors after mobilization with granulocyte colony-stimulating factor, were purchased from the Fred Hutchinson Cancer Research Center. The cells were grown and differentiated ex vivo into the erythroid lineage in 14 days by a two-phase culture method reported previously (Cui et al., 2011, Mol. Cell. Biol., 31:3298-3311; Giarratana et al., 2005, Nat. Biotechnol., 23:69-74). […] Cell morphology was examined by staining cytospins with a Wright-Giemsa stain (Sigma-Aldrich). Hemoglobin synthesis was examined by acid benzidine staining as previously described (Orkin et al., 1975, PNAS USA, 72:98-102).

The subject of a further data set is gamma-globin promoter. As to conditions: day 11. The method, then:
as §1

Data set [2] relates to primary human erythroid cells. Briefly: Hemoglobin analysis by HPLC, HbF synthesis. The format is cell-based. As to conditions: day 14, average, untreated control 4.6%. Here is the method: as §1
Cells were lysed and analyzed for hemoglobin composition by the B10-Rad Variant II Hemoglobin Testing System equipped with an ion-exchange HPLC column (Hercules). Averages of three to five biological replicates are presented.
(§2) A pLKO.1-puro lentiviral vector to express the LSD1 shRNA and a puromycin resistance gene was purchased from Sigma-Aldrich (TRCN0000046070), and the control empty vector was generated by removing a region (between EcoRI and NdeI sites) containing the hairpin sequence. Lentiviral particles were generated by transfecting the vectors into a packaging cell line. Cells were exposed to the viruses on day 4 of the culture for 24 hours, and then to 1 μg/ml puromycin on day 6 through day 14 for selection of infected cells.

Data set [3] deals with primary human erythroid cells. As to conditions: 0.5, 1.5 or 5 μM. The method, then:
as §1
For cell surface marker analysis, cells were stained with phycoerythrin (PE)-Cy7-conjugated anti-CD34 (eBioscience), PE-conjugated anti-CD71 (eBioscience), and PE-Cy5-conjugated antiglycophorin A (BD Biosciences) antibodies. For cytoplasmic HbF analysis, cells were fixed in 0.05% glutaraldehyde for 10 min, permeabilized in 0.1% Triton X-100 for 5 min, and then stained with allophycocyanin-conjugated anti-HbF antibody (Invitrogen). Stained cells were analyzed with the FACSCanto II (BD Biosciences).

For data set [4] the following is noted: 3 or 10 mg/kg per day s.c., 5 days a week for 4 weeks. Here is the method:
(§3) Control mice were injected with saline only. After 4 weeks of injections, bone marrow cells were harvested for RTqPCR analysis for expression of the genes for human gamma- and beta-globins, and mouse alpha-globin as an internal control. Three or four mice were used for each experimental condition.

In data set [5] the test system is primary human erythroid cells. Briefly: Proliferation and viability of differentiating erythroid cells, trypan blue count. To be noted: day 4 through day 14. The format is cell-based. Here is the method: as §1, §2
The next data set has as its system human gamma-globin gene. To be noted: 3 or 10 mg/kg per day s.c., 5 days a week for 4 weeks; dose dependent. The method, then: (§4) Expression of the genes for human gamma- and beta-globins, LSD1, mouse alpha-globin, and 18S rRNA was determined by RT-qPCR assay as described previously (Cui et al., supra). The abundance of each transcript was calculated based on the threshold cycle value and the amplification efficiency, experimentally determined for each primer pair, and then normalized to the abundance of 18S rRNA transcript as an internal control. All the primer pairs except for 18S rRNA were designed to span introns.
as §3

The test system of a further data set is Human beta-globin gene. As to conditions: 3 or 10 mg/kg per day s.c., 5 days a week for 4 weeks. The method, then:
as §4, §3

A further data set relates to fetal gamma-globin mRNA. It counts as cell-based, human. To be noted: TC treatment, by day 14. The method, then: as §1
Expression of the genes for human gamma- and beta-globins, LSD1, mouse alpha-globin, and 18S rRNA was determined by RT-qPCR assay as described previously (Cui et al., supra). The abundance of each transcript was calculated based on the threshold cycle value and the amplification efficiency, experimentally determined for each primer pair, and then normalized to the abundance of 18S rRNA transcript as an internal control. All the primer pairs except for 18S rRNA were designed to span introns. […]

For the compound `N[C@@H]1C[C@H]1c1ccccc1` (racemic) [TC, Tranylcypromine], the “global H3K4 dimethylation” value in data set [1] is “enhanced global H3K4 dimethylation in a dose dependent manner”. Moreover, the “H3K4 dimethylation at the gamma-globin promoter” value in the data set with gamma-globin promoter is “enhanced H3K4 dimethylation”. Further, the “HbF, % of total hemoglobin (HPLC)” value in data set [2] (0.5 μM) is reported as 13%; in [2] (1.5 μM) it was 20%; in data set [2] (5 μM), 31%. Also, the “cell population positive for both CD71 and GPA” value in data set [3] is recorded as “slight to moderate reduction”. Further, the “HbF inductive effect by flow cytometry” value in [3] (day 14) was “both pancellular and dose-dependent”. Further, the “activity of the mice (anecdotal observation)” value in data set [4] is listed as “much more active”. In addition, the “signs of toxic effects on hematological or other systems” value in [4] is “did not exhibit any signs of toxic effects”. In addition, in data set [4], the tolerability result is given as “well tolerated”. Further, the cell proliferation entry was “did not affect” in [5] (0.5 μM), “did not affect” in [5] (1.5 μM) and “reduced cell proliferation” in data set [5] (5 μM). Further, the values for the cell viability entry in data set [5] (0.5 μM), in data set [5] (1.5 μM) and in data set [5] (5 μM) were “did not affect”, “did not affect” and “without affecting viability”, respectively. The “induction of human gamma-globin gene expression in bone marrow cells vs control mice” value in the data set on human gamma-globin gene was “about 3 fold”. The “human beta-globin gene expression in bone marrow cells” value in the data set with Human beta-globin gene is “not significantly affected”. Besides, in the data set on fetal gamma-globin mRNA, the “induction of fetal gamma-globin mRNA” value is “up to 9.4 fold”.
